Experimental data published in patent US11078198B2 (BRISTOL-MYERS SQUIBB COMPANY, priority 2017, dated 2021).

Target: T1, human FXR (Homo sapiens, UniProt Q96RI1)
T1 construct: expressed in transfected cells; host or cells: HEK293 cells stably carrying a 5xGal4-response-element firefly luciferase reporter, transiently transfected with pcDNA3.1-Gal4-FXR
T1 sequence (Q96RI1 262-486 limits assumed): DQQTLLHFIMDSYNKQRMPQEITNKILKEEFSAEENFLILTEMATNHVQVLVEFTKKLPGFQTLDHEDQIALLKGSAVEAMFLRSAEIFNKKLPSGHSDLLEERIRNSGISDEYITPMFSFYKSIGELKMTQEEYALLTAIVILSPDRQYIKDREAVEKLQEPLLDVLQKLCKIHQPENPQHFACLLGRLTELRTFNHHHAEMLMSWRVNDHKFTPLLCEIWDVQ
Experiment: transient human FXR/Gal4-luciferase reporter assay
Format: cell-based
Settings: Gal4-hFXR transfected HEK293 reporter cells; relative to 8 μM GW-4064
Procedure: A Gal4-hFXR fusion construct reporter system was used as the primary assay to characterize compound activity. A construct including 5 copies of the Gal4 promoter response element upstream of a firefly luciferase reporter cDNA was stably expressed in HEK293 cells. This reporter cell line was maintained in Dulbecco's Modified Eagle's medium (DMEM; Gibco) supplemented with 1% penicillin-streptomycin (P/S) solution, 500 μg/mL Zeocin and 10% charcoal/dextran-treated fetal bovine serum (cs-FBS) at 37° C. in a humidified 5% CO2 atmosphere. Another plasmid was constructed in which the human cytomegalovirus promoter in the pcDNA3.1 vector directs the expression of the cDNA encoding a fusion protein comprised of the DNA binding domain from the Gal4 transcription factor fused to the ligand binding domain from human FXR.
The day prior to transfection, the reporter cells in culture are detached from the plate with trypsin and plated into a T75 flask at a sufficient density to achieve approximately 90% confluence the next morning. The transfection reagents are prepared by separately diluting 25 μg of the pcDNA3.1-Gal4-FXR plasmid into 1.87 mL of Opti-MEM (Thermo-Fisher), and 40 μL of Lipofectamine 2000 (Thermo-Fisher) into 1.87 mL of Opti-MEM, and then adding the diluted DNA solution into the diluted Lipofectamine 2000 solution and incubating at room temperature for 15-20 minutes. The mixture is further diluted with 10 mL of a solution comprised of DMEM, 10% cs-FBS, and 1% P/S immediately prior to transferring to the cells. The maintenance culture media is aspirated from the cells and the final transfection mixture is added before the cells are incubated overnight at 37° C. in a humidified 5% CO2 atmosphere. This protocol can be scaled up, and the transiently transfected cells can be cryopreserved in an assay-ready format.
For compound testing, 100 nL of the compounds (serial dilutions in DMSO) are dispensed with an Echo acoustic dispenser (Labcyte) into the wells of a Corning/Costar clear bottom 384-well white plate. The transfected cells are harvested, counted, and diluted such that 10-25,000 cells in 25 μL are plated into each well of the 384-well compound assay plate. The compound-treated cells are incubated overnight at 37° C. in a humidified 5% CO2 atmosphere.

Compound	EC50 [nM]
Cc1cccc(Cl)c1-c1noc(C2CC2)c1C1=CC2(CCN(c3ccc4cc(C(=O)O)nnc4c3)CC2)C1 [Example 57, 7-(2-(3-(2-Chloro-6-methylphenyl)-5-cyclopropylisoxazol-4-yl)-7-azaspiro[3.5]non-1-en-7-yl)cinnoline-3-carboxylic acid]	227
O=C(O)c1ccc2nc(N3CCC4(C=C(c5c(-c6c(Cl)cncc6Cl)noc5C5CC5)C4)CC3)sc2c1 [Example 63, 2-(2-(5-Cyclopropyl-3-(3,5-dichloropyridin-4-yl)isoxazol-4-yl)-7-azaspiro[3.5]non-1-en-7-yl)benzo[d]thiazole-6-carboxylic acid]	62
COc1ccc(C(=O)O)c2ccc(N3CCC4(C=C(c5c(-c6c(Cl)cncc6Cl)noc5C5CC5)C4)CC3)nc12 [Example 64, 2-(2-(5-Cyclopropyl-3-(3,5-dichloropyridin-4-yl)isoxazol-4-yl)-7-azaspiro[3.5]non-1-en-7-yl)-8-methoxyquinoline-5-carboxylic acid]	49
O=C(O)c1cccc2nc(N3CCC4(C=C(c5c(-c6c(Cl)cncc6Cl)noc5C5CC5)C4)CC3)ccc12 [Example 65, 2-(2-(5-Cyclopropyl-3-(3,5-dichloropyridin-4-yl)isoxazol-4-yl)-7-azaspiro[3.5]non-1-en-7-yl)quinoline-5-carboxylic acid]	65
O=C(O)c1ccc(N2CCC3(C=C(c4c(-c5c(Cl)cncc5Cl)noc4C4CC4)C3)CC2)nc1 [Example 66, 6-(2-(5-Cyclopropyl-3-(3,5-dichloropyridin-4-yl)isoxazol-4-yl)-7-azaspiro[3.5]non-1-en-7-yl)nicotinic acid]	342
O=C(O)c1ccc(N2CCC3(C=C(c4c(-c5c(Cl)cc(F)cc5Cl)noc4C4CC4)C3)CC2)nc1 [Example 67, 6-(2-(5-Cyclopropyl-3-(2,6-dichloro-4-fluorophenyl)isoxazol-4-yl)-7-azaspiro[3.5]non-1-en-7-yl)nicotinic acid]	493
O=C(O)c1cc(F)c2nc(N3CCC4(C=C(c5c(-c6c(F)cncc6F)noc5C5CC5)C4)CC3)sc2c1 [Example 68, 2-(2-(5-Cyclopropyl-3-(3,5-difluoropyridin-4-yl)isoxazol-4-yl)-7-azaspiro[3.5]non-1-en-7-yl)-4-fluorobenzo[d]thiazole-6-carboxylic acid]	442
COc1cncc(F)c1-c1noc(C2CC2)c1C1=CC2(CCN(c3nc4c(F)cc(C(=O)O)cc4s3)CC2)C1 [Example 69, 2-(2-(5-Cyclopropyl-3-(3-fluoro-5-methoxypyridin-4-yl)isoxazol-4-yl)-7-azaspiro[3.5]non-1-en-7-yl)-4-fluorobenzo[d]thiazole-6-carboxylic acid]	730
COc1cc(C(=O)O)c2nc(N3CCC4(C=C(c5c(-c6c(Cl)cncc6Cl)noc5C5CC5)C4)CC3)sc2c1 [Example 70, 2-(2-(5-Cyclopropyl-3-(3,5-dichloropyridin-4-yl)isoxazol-4-yl)-7-azaspiro[3.5]non-1-en-7-yl)-6-methoxybenzo[d]thiazole-4-carboxylic acid]	4400
O=C(O)c1cc(OC(F)F)c2cc(N3CCC4(C=C(c5c(-c6ccncc6Cl)noc5C5CC5)C4)CC3)ccc2n1 [Example 74, 6-(2-(3-(3-Chloropyridin-4-yl)-5-cyclopropylisoxazol-4-yl)-7-azaspiro[3.5]non-1-en-7-yl)-4-(difluoromethoxy)quinoline-2-carboxylic acid]	38
O=C(O)c1cc(OC(F)F)c2cc(N3CCC4(C=C(c5c(-c6cnccc6C(F)(F)F)noc5C5CC5)C4)CC3)ccc2n1 [Example 75, 6-(2-(5-Cyclopropyl-3-(4-(trifluoromethyl)pyridin-3-yl)isoxazol-4-yl)-7-azaspiro[3.5]non-1-en-7-yl)-4-(difluoromethoxy)quinoline-2-carboxylic acid]	35
COc1cc(N2CCC3(C=C(c4c(-c5c(Cl)cncc5Cl)noc4C4CC4)C3)CC2)ncc1C(=O)O [Example 76, 6-(2-(5-Cyclopropyl-3-(3,5-dichloropyridin-4-yl)isoxazol-4-yl)-7-azaspiro[3.5]non-1-en-7-yl)-4-methoxynicotinic acid]	2150
O=C(O)c1cc(OC(F)F)c2cc(N3CCC4(C=C(c5c(-c6cccnc6C(F)(F)F)noc5C5CC5)C4)CC3)ccc2n1 [Example 77, 6-(2-(5-Cyclopropyl-3-(2-(trifluoromethyl)pyridin-3-yl)isoxazol-4-yl)-7-azaspiro[3.5]non-1-en-7-yl)-4-(difluoromethoxy)quinoline-2-carboxylic acid]	68
O=C(O)c1cc(OC(F)F)c2cc(N3CCC4(C=C(c5c(-c6ncccc6Cl)noc5C5CC5)C4)CC3)ccc2n1 [Example 78, 6-(2-(3-(3-Chloropyridin-2-yl)-5-cyclopropylisoxazol-4-yl)-7-azaspiro[3.5]non-1-en-7-yl)-4-(difluoromethoxy)quinoline-2-carboxylic acid]	121
O=C(O)c1cc2ccc(N3CCC4(C=C(c5c(-c6c(F)cccc6F)noc5C5CC5)C4)CC3)cc2nn1 [Example 79, 7-(2-(5-Cyclopropyl-3-(2,6-difluorophenyl)isoxazol-4-yl)-7-azaspiro[3.5]non-1-en-7-yl)cinnoline-3-carboxylic acid]	733

Molecules with a lower EC50, results first:

EC50 [nM]	Compound
24	O=C(O)c1ccc2nc(N3CCC4(C=C(c5c(-c6c(Cl)cncc6Cl)noc5C5CC5)C4)CC3)sc2n1 [Example 62, 2-(2-(5-Cyclopropyl-3-(3,5-dichloropyridin-4-yl)isoxazol-4-yl)-7-azaspiro[3.5]non-1-en-7-yl)thiazolo[5,4-b]pyridine-5-carboxylic acid]
16	O=C(O)c1cc(OC(F)F)c2cc(N3CCC4(C=C(c5c(-c6c(Cl)cncc6Cl)noc5C5CC5)C4)CC3)ccc2n1 [Example 73, 6-(2-(5-Cyclopropyl-3-(3,5-dichloropyridin-4-yl)isoxazol-4-yl)-7-azaspiro[3.5]non-1-en-7-yl)-4-(difluoromethoxy)quinoline-2-carboxylic acid]
10	CCOc1cc(C(=O)O)nc2ccc(N3CCC4(C=C(c5c(-c6ccccc6C(F)(F)F)noc5C5CC5)C4)CC3)cc12 [Example 72, 6-(2-(5-Cyclopropyl-3-(2-(trifluoromethyl)phenyl)isoxazol-4-yl)-7-azaspiro[3.5]non-1-en-7-yl)-4-ethoxyquinoline-2-carboxylic acid]
9.4	COc1cc(C(=O)O)cc2sc(N3CCC4(C=C(c5c(-c6ccccc6C(F)(F)F)noc5C5CC5)C4)CC3)nc12 [Example 71, 2-(2-(5-Cyclopropyl-3-(2-(trifluoromethyl)phenyl)isoxazol-4-yl)-7-azaspiro[3.5]non-1-en-7-yl)-4-methoxybenzo[d]thiazole-6-carboxylic acid]
7.2	O=C(O)c1cc(C(F)(F)F)cc2nc(N3CCC4(C=C(c5c(-c6c(Cl)cncc6Cl)noc5C5CC5)C4)CC3)ccc12 [Example 60, 2-(2-(5-Cyclopropyl-3-(3,5-dichloropyridin-4-yl)isoxazol-4-yl)-7-azaspiro[3.5]non-1-en-7-yl)-7-(trifluoromethyl)quinoline-5-carboxylic acid]
7.2	Cc1cc(C(=O)O)cc2sc(N3CCC4(C=C(c5c(-c6c(Cl)cncc6Cl)noc5C5CC5)C4)CC3)nc12 [Example 61, 2-(2-(5-Cyclopropyl-3-(3,5-dichloropyridin-4-yl)isoxazol-4-yl)-7-azaspiro[3.5]non-1-en-7-yl)-4-methylbenzo[d]thiazole-6-carboxylic acid]
4.1	COc1cc(C(=O)O)cc2sc(N3CCC4(C=C(c5c(-c6c(Cl)cncc6Cl)noc5C5CC5)C4)CC3)nc12 [Example 59, 2-(2-(5-Cyclopropyl-3-(3,5-dichloropyridin-4-yl)isoxazol-4-yl)-7-azaspiro[3.5]non-1-en-7-yl)-4-methoxybenzo[d]thiazole-6-carboxylic acid]
2.3	O=C(O)c1cc(OC(F)F)c2cc(N3CCC4(C=C(c5c(-c6ccccc6C(F)(F)F)noc5C5CC5)C4)CC3)ccc2n1 [Example 58, 6-(2-(5-Cyclopropyl-3-(2-(trifluoromethyl)phenyl)isoxazol-4-yl)-7-azaspiro[3.5]non-1-en-7-yl)-4-(difluoromethoxy)quinoline-2-carboxylic acid]
